40 molecules from patent US9249131B2, “Modulators of ATP-binding cassette transporters” (Vertex Pharmaceuticals Incorporated, priority 2003, dated 2016) can be followed below.

In the test the target is T1, ΔF508-CFTR (Homo sapiens, UniProt P13569, DEL508-508).
T1 construct: expressed in transfected cells; host or cells: NIH3T3 mouse fibroblasts stably expressing ΔF508-CFTR for the optical, whole-cell and single-channel assays; Fisher rat epithelial (FRT) cells for Ussing chamber follow-up
The test can be described thus: Assays for ΔF508-CFTR correction and potentiator properties (membrane potential optical and electrophysiological methods). The class given is cell-based. The conditions noted are these: CFTR modulation; for % Activity: % Efficacy; for EC50: tested using the above methods. The text has this: Assays for Detecting and Measuring ΔF508-CFTR Correction and Potentiator Properties of Compounds
A) Membrane Potential Optical Methods for Assaying ΔF508-CFTR Modulation Properties of Compounds
The optical membrane potential assay utilized voltage-sensitive FRET sensors described by Gonzalez and Tsien (See, Gonzales, J. E. and R. Y. Tsien (1995) “Voltage sensing by fluorescence resonance energy transfer in single cells” Biophys J 69 (4): 1272-80, and Gonzalez, J. E. and R. Y. Tsien (1997) “Improved indicators of cell membrane potential that use fluorescence resonance energy transfer” Chem Biol 4 (4): 269-77) in combination with instrumentation for measuring fluorescence changes such as the Voltage/Ion Probe Reader (VIPR) (See, Gonzalez, J. E., K. Oades, et al. (1999) “Cell-based assays and instrumentation for screening ion-channel targets” Drug Discov Today 4 (9): 431-439).
These voltage sensitive assays are based on the change in fluorescence resonant energy transfer (FRET) between the membrane-soluble, voltage-sensitive dye, DiSBAC2 (3), and a fluorescent phospholipid, CC2-DMPE, which is attached to the outer leaflet of the plasma membrane and acts as a FRET donor. Changes in membrane potential (Vm) cause the negatively charged DiSBAC2(3) to redistribute across the plasma membrane and the amount of energy transfer from CC2-DMPE changes accordingly. The changes in fluorescence emission were monitored using VIPR™ II, which is an integrated liquid handler and fluorescent detector designed to conduct cell-based screens in 96- or 384-well microtiter plates.
To identify small molecules that correct the trafficking defect associated with ΔF508-CFTR; a single-addition HTS assay format was developed. The cells were incubated in serum-free medium for 16 hrs at 37° C. in the presence or absence (negative control) of test compound. As a positive control, cells plated in 384-well plates were incubated for 16 hrs at 27° C. to “temperature-correct” ΔF508-CFTR. The cells were subsequently rinsed 3× with Krebs Ringers solution and loaded with the voltage-sensitive dyes. To activate ΔF508-CFTR, […] and the CFTR potentiator, genistein ([…]), were added along with Cl^−-free medium to each well. The addition of Cl^−-free medium promoted Cl^− efflux in response to ΔF508-CFTR activation and the resulting membrane depolarization was optically monitored using the FRET-based voltage-sensor dyes.
To identify potentiators of ΔF508-CFTR, a double-addition HTS assay format was developed. During the first addition, a Cl^−-free medium with or without test compound was added to each well. After 22 sec, a second addition of Cl^−-free medium containing 2-10 µM forskolin was added to activate ΔF508-CFTR. The extracellular Cl^− concentration following both additions was 28 mM, which promoted Cl^− efflux in response to ΔF508-CFTR activation and the resulting membrane depolarization was optically monitored using the FRET-based voltage-sensor dyes.
• Bath Solution #1: (in mM) NaCl 160, KCl 4.5, CaCl2 2, MgCl2 1, HEPES 10, pH 7.4 with NaOH. • Chloride-free bath solution: Chloride salts in Bath Solution #1 are substituted with gluconate salts. • CC2-DMPE: Prepared as a 10 mM stock solution in DMSO and stored at −20° C. • DiSBAC2(3): Prepared as a 10 mM stock in DMSO and stored at −20° C. Cell Culture
NIH3T3 mouse fibroblasts stably expressing ΔF508-CFTR are used for optical measurements of membrane potential. The cells are maintained at 37° C. in 5% CO2 and 90% humidity in Dulbecco's modified Eagle's medium supplemented with 2 mM glutamine, 10% fetal bovine serum, 1×NEAA, β-ME, 1×pen/strep, and 25 mM HEPES in 175 cm^2 culture flasks. For all optical assays, the cells were seeded at 30,000/well in 384-well matrigel-coated plates and cultured for 2 hrs at 37° C. before culturing at 27° C. for 24 hrs. for the potentiator assay. For the correction assays, the cells are cultured at 27° C. or 37° C. with and without compounds for 16-24 hours.

T1 sequence (P13569 with tags, fused parts or gaps DEL508-508): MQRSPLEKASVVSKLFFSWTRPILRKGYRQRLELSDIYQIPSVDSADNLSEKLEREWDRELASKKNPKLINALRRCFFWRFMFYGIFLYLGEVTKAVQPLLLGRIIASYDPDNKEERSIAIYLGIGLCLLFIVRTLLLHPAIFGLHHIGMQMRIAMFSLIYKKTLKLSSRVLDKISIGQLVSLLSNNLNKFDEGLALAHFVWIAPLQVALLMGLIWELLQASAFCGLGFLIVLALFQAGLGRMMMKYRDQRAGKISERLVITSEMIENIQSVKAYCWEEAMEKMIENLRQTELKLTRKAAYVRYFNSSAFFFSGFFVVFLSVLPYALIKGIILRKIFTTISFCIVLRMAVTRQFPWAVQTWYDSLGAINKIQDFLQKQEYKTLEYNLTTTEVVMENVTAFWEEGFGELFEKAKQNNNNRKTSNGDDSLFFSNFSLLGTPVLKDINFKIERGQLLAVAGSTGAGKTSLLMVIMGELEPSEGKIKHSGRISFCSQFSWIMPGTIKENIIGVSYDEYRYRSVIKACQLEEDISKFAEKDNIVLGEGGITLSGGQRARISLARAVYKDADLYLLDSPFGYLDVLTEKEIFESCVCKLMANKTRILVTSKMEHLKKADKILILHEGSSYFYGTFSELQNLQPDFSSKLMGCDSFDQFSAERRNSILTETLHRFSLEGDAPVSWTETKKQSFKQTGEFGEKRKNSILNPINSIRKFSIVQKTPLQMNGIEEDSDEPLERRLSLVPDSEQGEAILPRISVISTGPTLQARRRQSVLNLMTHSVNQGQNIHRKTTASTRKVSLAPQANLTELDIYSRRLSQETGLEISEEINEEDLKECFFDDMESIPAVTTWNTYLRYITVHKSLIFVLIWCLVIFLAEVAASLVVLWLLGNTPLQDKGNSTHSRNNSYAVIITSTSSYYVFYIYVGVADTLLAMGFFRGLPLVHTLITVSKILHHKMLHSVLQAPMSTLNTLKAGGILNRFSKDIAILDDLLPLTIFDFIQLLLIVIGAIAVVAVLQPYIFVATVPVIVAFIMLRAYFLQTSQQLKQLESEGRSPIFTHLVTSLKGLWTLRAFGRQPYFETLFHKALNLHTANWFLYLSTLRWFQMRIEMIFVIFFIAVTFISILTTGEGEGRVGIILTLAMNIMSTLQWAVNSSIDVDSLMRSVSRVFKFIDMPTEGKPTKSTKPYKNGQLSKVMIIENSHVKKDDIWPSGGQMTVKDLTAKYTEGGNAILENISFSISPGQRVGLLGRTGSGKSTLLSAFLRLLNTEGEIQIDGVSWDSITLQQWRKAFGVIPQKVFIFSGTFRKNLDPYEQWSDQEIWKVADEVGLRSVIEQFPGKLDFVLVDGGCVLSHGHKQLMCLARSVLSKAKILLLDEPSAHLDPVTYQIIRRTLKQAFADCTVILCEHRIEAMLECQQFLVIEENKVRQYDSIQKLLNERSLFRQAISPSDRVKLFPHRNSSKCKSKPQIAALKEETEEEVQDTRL

A word on the EC50: it is the concentration that produces a half-maximal response. Take `Cc1nc(NC(=O)COc2ccccc2C(C)C)sc1C` [compound 64]: the “% Activity” value is reported as “+++ (“+++” means >100%)” and the EC50 is below 10 µM.

As to `O=C(CN1CCCCC1)Nc1ncc(Cc2cccc3ccccc23)s1` [compound 65], the “% Activity” value is “++ (“++” means between 25% to 100%)” and the EC50 lay in the range of 10 to 25 µM.

On to `Cc1ccc(C(=O)Nc2nc(C)c(C)s2)cc1` [compound 66], for which the “% Activity” value is listed as “++ (“++” means between 25% to 100%)” and the EC50 fell in the range of 10 to 25 µM.

As for `Cc1ccc(C(=O)Nc2nc(-c3ccccc3)cs2)cc1` [compound 67], the “% Activity” value is “++ (“++” means between 25% to 100%)” and the EC50 was in the range of 10 to 25 µM.

Regarding `O=C(Nc1nc(-c2ccccc2)c(-c2ccccc2)s1)c1ccccc1` [compound 68], the “% Activity” value was “++ (“++” means between 25% to 100%)” and the EC50 was below 10 µM.

`COc1ccccc1-c1csc(NC(=O)c2ccccc2)n1` [compound 69]: the “% Activity” value is given as “+++ (“+++” means >100%)” and the EC50 fell in the range of 10 to 25 µM.

In the case of `Cc1cccc(C(=O)Nc2nc(-c3ccccc3)c(-c3ccccc3)s2)c1` [compound 70], the “% Activity” value is “+++ (“+++” means >100%)” and the concentration giving a half-maximal response (EC50) is below 10 µM.

Turning to `Cc1ccccc1C(=O)Nc1nc(-c2ccccc2)c(-c2ccccc2)s1` [compound 71], the “% Activity” value is listed as “++ (“++” means between 25% to 100%)” and the EC50 is below 10 µM.

Turning to `COc1ccc(C(=O)Nc2nc(-c3ccccc3)c(-c3ccccc3)s2)cc1` [compound 72], the “% Activity” value was “+++ (“+++” means >100%)” and the EC50 is below 10 µM.

In the case of `O=C(Nc1nc(-c2ccccc2)c(-c2ccccc2)s1)c1ccc(Cl)c(Cl)c1` [compound 73], the “% Activity” value is listed as “++ (“++” means between 25% to 100%)” and the EC50 was in the range of 10 to 25 µM.

Turning to `O=C(Nc1nc(-c2ccccc2)c(-c2ccccc2)s1)c1ccc(Cl)cc1` [compound 74], the “% Activity” value was “++ (“++” means between 25% to 100%)” and the half-maximal effective concentration (EC50) lay within 10 to 25 µM.

As to `Cc1ccccc1C(=O)Nc1nc(-c2ccccc2)cs1` [compound 75], the “% Activity” value is on record as “++ (“++” means between 25% to 100%)” and the EC50 lay in the range of 10 to 25 µM.

Turning to `COc1ccccc1C(=O)Nc1nc(-c2ccccc2)cs1` [compound 76], the “% Activity” value is “+++ (“+++” means >100%)” and the EC50 is 10 to 25 µM.

Take `O=C(Nc1nc(-c2ccccc2)cs1)c1ccccc1Cl` [compound 77]: the “% Activity” value is recorded as “++ (“++” means between 25% to 100%)” and the EC50 was in the range of 10 to 25 µM.

On to `COc1ccc(C(=O)Nc2nc(-c3ccccc3)cs2)cc1` [compound 78], for which the “% Activity” value was “++ (“++” means between 25% to 100%)” and the concentration giving a half-maximal response (EC50) fell in the range of 10 to 25 µM.

On to `COc1ccccc1C(=O)Nc1nc(-c2ccccc2OC)cs1` [compound 79], for which the “% Activity” value is “++ (“++” means between 25% to 100%)” and the EC50 is 10 to 25 µM.

In the case of `COc1cccc(-c2csc(NC(=O)c3ccccc3OC)n2)c1` [compound 80], the “% Activity” value is given as “++ (“++” means between 25% to 100%)” and the EC50 fell in the range of 10 to 25 µM.

On to `COc1cccc(-c2csc(NC(=O)c3ccccc3)n2)c1` [compound 81], for which the “% Activity” value is given as “++ (“++” means between 25% to 100%)” and the EC50 lay within 10 to 25 µM.

Take `COc1cccc(C(=O)Nc2nc(-c3cccc(OC)c3)cs2)c1` [compound 82]: the “% Activity” value is reported as “++ (“++” means between 25% to 100%)” and the EC50 is 10 to 25 µM.

Take `COc1cccc(-c2csc(NC(=O)c3ccc(C)cc3)n2)c1` [compound 83]: the “% Activity” value was “+++ (“+++” means >100%)” and the EC50 was in the range of 10 to 25 µM.

As to `COc1ccc(C(=O)Nc2nc(-c3cccc(OC)c3)cs2)cc1` [compound 84], the “% Activity” value is on record as “++ (“++” means between 25% to 100%)” and the EC50 is 10 to 25 µM.

`CC(C)C(=O)Nc1nc(-c2ccccc2)cs1` [compound 85]: the “% Activity” value is listed as “++ (“++” means between 25% to 100%)” and the EC50 is 10 to 25 µM.

For the molecule `CC(C)CC(=O)Nc1nc(-c2ccccc2)cs1` [compound 86], the “% Activity” value is “++ (“++” means between 25% to 100%)” and the concentration for a half-maximal effect (EC50) lay in the range of 10 to 25 µM.

As for `CC(C)(C)C(=O)Nc1nc(-c2ccccc2)cs1` [compound 87], the “% Activity” value is recorded as “++ (“++” means between 25% to 100%)” and the EC50 was in the range of 10 to 25 µM.

Regarding `Cc1cccc(C(=O)Nc2nc(-c3ccccc3)cs2)c1` [compound 88], the “% Activity” value is recorded as “+++ (“+++” means >100%)” and the EC50 lay within 10 to 25 µM.

Take `O=C(Nc1ncc(Cc2ccccc2)s1)C1c2ccccc2Oc2ccccc21` [compound 89]: the “% Activity” value is given as “+++ (“+++” means >100%)” and the EC50 was below 10 µM.

As for `O=C(Nc1ncc(Cc2ccccc2Cl)s1)C1c2ccccc2Oc2ccccc21` [compound 90], the “% Activity” value was “+++ (“+++” means >100%)” and the EC50 was below 10 µM.

On to `O=C(Nc1ncc(Cc2ccccc2Cl)s1)C(c1ccccc1)C1CCCCC1` (centres unmarked) [compound 91], for which the “% Activity” value is recorded as “+++ (“+++” means >100%)” and the EC50 was below 10 µM.

As for `O=C(Nc1ncc(Cc2ccccc2)o1)C(c1ccccc1)C1CCCCC1` (centres unmarked) [compound 92], the “% Activity” value is recorded as “++ (“++” means between 25% to 100%)” and the EC50 was below 10 µM.

In the case of `O=C(Nc1ncc(Cc2ccccc2)s1)C1c2ccccc2-c2ccccc21` [compound 93], the “% Activity” value is on record as “+++ (“+++” means >100%)” and the EC50 is below 10 µM.

On to `O=C(Nc1ncc(Cc2ccccc2Cl)s1)C(c1ccc(Cl)cc1)c1ccc(Cl)cc1` [compound 95], for which the “% Activity” value is recorded as “++ (“++” means between 25% to 100%)” and the EC50 was below 10 µM.

`CCC(C(=O)Nc1ncc(Cc2ccccc2)s1)c1ccccc1` (centres unmarked) [compound 96]: the “% Activity” value is given as “++ (“++” means between 25% to 100%)” and the EC50 is 10 to 25 µM.

Consider `CCC(C(=O)Nc1ncc(Cc2ccccc2Cl)s1)c1ccccc1` (centres unmarked) [compound 97], for which the “% Activity” value is on record as “+++ (“+++” means >100%)” and the EC50 is below 10 µM.

For the molecule `CCC(C)C(C(=O)Nc1ncc(Cc2ccccc2)s1)c1ccccc1` (centres unmarked) [compound 98], the “% Activity” value is listed as “++ (“++” means between 25% to 100%)” and the EC50 is below 10 µM.

Turning to `CCC(C)C(C(=O)Nc1ncc(Cc2ccccc2Cl)s1)c1ccccc1` (centres unmarked) [compound 99], the “% Activity” value was “+++ (“+++” means >100%)” and the EC50 is below 10 µM.

As to `CCC(C)C(C(=O)Nc1ncc(Cc2ccccc2)o1)c1ccccc1` (centres unmarked) [compound 100], the “% Activity” value was “++ (“++” means between 25% to 100%)” and the EC50 lay within 10 to 25 µM.

For the molecule `O=C(Nc1ncc(Cc2ccccc2)s1)C(c1ccccc1)C1CCCC1` (centres unmarked) [compound 101], the “% Activity” value is reported as “++ (“++” means between 25% to 100%)” and the EC50 is below 10 µM.

With `O=C(Nc1ncc(Cc2ccccc2Cl)s1)C(c1ccccc1)C1CCCC1` (centres unmarked) [compound 102], the “% Activity” value is “+++ (“+++” means >100%)” and the EC50 was below 10 µM.

For the molecule `CC(C)C(C(=O)Nc1ncc(Cc2ccccc2Cl)s1)c1ccccc1` (centres unmarked) [compound 103], the “% Activity” value was “+++ (“+++” means >100%)” and the EC50 is below 10 µM.

In the case of `O=C(Nc1nc(-c2ccccc2)c(-c2ccccc2)s1)c1ccccc1Cl` [compound 104], the “% Activity” value is on record as “++ (“++” means between 25% to 100%)” and the EC50 was below 10 µM.
